How the values were obtained:
Experiment in all cases: Kinase panel (Eurofins)
Format in all cases: biochemical
Settings in all cases: n = 2; for inhibition at 1 µM: at 1 μmol/L; for IC50: read-out: IC50 kinase inhibition
ALK(h) = target: T1, ALK(h) (Homo sapiens, UniProt Q9UM73)
T1 construct: purchased Eurofins
From the text: (§1) These receptors have a methionine gatekeeper in their kinase domains, and are related to hyperglycemia in other clinical trials of EGFR TKI, such as Co-1686.

Blk(h) = target: T2, Blk(h) (Homo sapiens, UniProt P51451)
T2 construct: purchased Eurofins
From the text: as §1

ErbB4(h) = target: T3, ErbB4(h) (Homo sapiens, UniProt Q15303)
T3 construct: purchased Eurofins
From the text: as §1

Flt3(h) = target: T4, Flt3(h) (Homo sapiens, UniProt P36888)
T4 construct: purchased Eurofins
T4 sequence (P36888 27-993): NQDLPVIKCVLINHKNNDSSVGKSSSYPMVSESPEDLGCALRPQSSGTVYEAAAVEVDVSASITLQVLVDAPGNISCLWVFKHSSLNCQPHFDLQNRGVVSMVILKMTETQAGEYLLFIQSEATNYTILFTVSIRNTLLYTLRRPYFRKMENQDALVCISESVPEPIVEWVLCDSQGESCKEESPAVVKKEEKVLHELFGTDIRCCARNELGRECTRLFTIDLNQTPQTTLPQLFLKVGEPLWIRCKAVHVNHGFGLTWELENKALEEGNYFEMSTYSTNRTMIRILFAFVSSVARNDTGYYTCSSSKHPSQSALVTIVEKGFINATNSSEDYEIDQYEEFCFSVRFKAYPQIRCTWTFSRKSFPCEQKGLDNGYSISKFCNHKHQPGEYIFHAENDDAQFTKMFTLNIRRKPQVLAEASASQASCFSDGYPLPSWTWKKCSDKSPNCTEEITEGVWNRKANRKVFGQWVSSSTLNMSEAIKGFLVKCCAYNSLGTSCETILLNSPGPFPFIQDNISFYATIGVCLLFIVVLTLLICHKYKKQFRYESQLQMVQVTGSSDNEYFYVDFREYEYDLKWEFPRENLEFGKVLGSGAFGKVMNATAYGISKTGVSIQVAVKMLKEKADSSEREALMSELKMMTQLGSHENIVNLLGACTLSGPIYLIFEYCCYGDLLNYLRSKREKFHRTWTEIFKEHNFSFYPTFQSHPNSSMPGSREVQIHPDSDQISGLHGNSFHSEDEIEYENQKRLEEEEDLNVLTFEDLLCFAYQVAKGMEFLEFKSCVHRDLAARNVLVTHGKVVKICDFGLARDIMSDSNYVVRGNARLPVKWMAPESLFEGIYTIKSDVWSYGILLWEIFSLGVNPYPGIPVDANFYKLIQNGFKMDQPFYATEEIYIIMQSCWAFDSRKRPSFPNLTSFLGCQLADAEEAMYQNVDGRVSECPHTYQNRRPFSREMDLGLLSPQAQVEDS
From the text: as §1

HIPK4(h) = target: T5, HIPK4(h) (Homo sapiens, UniProt Q8NE63)
T5 construct: purchased Eurofins
T5 sequence (Q8NE63 1-616): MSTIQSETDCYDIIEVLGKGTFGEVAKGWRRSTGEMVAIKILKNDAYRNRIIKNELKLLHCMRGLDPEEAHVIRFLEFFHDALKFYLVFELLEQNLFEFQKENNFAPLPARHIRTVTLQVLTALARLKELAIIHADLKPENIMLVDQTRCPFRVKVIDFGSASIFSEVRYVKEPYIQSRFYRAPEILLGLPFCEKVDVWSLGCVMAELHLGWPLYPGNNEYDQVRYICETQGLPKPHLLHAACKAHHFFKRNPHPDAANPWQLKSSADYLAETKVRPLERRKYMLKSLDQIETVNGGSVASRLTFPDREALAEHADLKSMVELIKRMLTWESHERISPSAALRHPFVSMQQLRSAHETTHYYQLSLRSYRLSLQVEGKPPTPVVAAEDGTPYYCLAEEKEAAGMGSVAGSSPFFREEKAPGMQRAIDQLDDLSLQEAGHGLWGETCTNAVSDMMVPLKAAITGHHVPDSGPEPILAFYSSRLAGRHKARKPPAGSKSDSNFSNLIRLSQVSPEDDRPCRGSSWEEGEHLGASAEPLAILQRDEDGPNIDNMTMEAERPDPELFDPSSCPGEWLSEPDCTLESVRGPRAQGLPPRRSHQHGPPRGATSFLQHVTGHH
From the text: as §1

LTK(h) = target: T6, LTK(h) (Homo sapiens, UniProt P29376)
T6 construct: purchased Eurofins
From the text: as §1

PTK5(h) = target: T7, PTK5(h) (Homo sapiens, UniProt P42685)
T7 construct: purchased Eurofins
From the text: as §1

Pyk2(h) = target: T8, Pyk2(h) (Homo sapiens, UniProt Q14289)
T8 construct: purchased Eurofins
From the text: as §1

Ros(h) = target: T9, Ros(h) (Homo sapiens, UniProt P08922)
T9 construct: purchased Eurofins
From the text: as §1

Tec(h) activated = target: T10, Tec(h) activated (Homo sapiens, UniProt P42680)
T10 construct: purchased Eurofins
T10 sequence (P42680 1-631): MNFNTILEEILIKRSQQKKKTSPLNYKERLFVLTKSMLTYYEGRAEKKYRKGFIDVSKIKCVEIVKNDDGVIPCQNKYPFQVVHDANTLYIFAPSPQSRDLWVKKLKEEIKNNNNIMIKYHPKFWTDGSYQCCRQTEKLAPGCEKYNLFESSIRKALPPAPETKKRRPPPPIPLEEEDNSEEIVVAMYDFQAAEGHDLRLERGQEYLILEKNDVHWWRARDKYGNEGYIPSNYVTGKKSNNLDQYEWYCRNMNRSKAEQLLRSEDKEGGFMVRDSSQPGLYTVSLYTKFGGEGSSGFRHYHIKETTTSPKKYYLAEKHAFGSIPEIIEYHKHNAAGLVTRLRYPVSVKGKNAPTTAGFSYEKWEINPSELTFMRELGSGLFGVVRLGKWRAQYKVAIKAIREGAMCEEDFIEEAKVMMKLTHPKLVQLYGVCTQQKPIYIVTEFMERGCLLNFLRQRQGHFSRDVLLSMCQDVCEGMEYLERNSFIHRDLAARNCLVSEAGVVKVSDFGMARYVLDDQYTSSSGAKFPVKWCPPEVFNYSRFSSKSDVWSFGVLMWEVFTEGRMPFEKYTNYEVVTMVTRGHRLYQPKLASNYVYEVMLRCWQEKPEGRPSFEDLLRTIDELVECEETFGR
From the text: as §1

T8 sequence (Q14289 whole entry): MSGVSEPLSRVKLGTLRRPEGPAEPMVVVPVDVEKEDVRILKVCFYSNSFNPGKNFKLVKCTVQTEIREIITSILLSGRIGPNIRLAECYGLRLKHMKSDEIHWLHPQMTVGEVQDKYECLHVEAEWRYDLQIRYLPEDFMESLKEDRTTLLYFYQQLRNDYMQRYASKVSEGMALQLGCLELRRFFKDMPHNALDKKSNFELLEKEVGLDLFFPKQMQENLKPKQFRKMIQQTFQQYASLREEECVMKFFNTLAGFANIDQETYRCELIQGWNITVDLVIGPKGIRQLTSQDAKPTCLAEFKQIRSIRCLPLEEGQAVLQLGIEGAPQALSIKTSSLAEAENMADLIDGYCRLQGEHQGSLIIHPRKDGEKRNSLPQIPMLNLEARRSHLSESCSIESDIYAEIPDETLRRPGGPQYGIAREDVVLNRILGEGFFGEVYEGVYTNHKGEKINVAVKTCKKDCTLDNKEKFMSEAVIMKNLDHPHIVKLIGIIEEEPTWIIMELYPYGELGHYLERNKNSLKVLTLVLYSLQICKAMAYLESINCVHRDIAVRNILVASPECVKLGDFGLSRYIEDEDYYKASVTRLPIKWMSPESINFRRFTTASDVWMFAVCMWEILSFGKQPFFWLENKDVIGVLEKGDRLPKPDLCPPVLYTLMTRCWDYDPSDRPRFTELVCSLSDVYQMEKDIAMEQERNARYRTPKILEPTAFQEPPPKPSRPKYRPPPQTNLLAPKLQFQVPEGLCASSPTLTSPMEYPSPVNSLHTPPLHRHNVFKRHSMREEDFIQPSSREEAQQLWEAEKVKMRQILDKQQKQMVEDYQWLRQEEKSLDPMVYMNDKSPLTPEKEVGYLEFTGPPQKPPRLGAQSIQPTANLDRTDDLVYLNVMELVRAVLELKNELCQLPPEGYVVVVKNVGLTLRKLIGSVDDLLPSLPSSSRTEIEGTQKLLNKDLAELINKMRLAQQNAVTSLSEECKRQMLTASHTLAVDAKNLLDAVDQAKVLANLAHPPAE
T7 sequence (P42685 whole entry): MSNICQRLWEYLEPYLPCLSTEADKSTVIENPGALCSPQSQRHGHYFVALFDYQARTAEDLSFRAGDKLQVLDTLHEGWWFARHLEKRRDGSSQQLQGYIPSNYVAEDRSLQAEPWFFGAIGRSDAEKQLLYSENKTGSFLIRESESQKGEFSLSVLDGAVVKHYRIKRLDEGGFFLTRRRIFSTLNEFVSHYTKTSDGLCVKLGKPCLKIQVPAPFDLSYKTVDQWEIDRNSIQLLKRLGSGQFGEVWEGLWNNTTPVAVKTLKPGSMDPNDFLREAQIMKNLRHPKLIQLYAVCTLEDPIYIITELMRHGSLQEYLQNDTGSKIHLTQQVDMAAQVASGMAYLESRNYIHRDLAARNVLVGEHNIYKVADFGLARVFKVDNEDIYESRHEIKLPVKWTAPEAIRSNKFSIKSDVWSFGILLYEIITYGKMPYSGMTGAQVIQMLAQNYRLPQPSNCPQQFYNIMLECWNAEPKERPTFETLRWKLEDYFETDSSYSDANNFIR
T9 sequence (P08922 28-2347): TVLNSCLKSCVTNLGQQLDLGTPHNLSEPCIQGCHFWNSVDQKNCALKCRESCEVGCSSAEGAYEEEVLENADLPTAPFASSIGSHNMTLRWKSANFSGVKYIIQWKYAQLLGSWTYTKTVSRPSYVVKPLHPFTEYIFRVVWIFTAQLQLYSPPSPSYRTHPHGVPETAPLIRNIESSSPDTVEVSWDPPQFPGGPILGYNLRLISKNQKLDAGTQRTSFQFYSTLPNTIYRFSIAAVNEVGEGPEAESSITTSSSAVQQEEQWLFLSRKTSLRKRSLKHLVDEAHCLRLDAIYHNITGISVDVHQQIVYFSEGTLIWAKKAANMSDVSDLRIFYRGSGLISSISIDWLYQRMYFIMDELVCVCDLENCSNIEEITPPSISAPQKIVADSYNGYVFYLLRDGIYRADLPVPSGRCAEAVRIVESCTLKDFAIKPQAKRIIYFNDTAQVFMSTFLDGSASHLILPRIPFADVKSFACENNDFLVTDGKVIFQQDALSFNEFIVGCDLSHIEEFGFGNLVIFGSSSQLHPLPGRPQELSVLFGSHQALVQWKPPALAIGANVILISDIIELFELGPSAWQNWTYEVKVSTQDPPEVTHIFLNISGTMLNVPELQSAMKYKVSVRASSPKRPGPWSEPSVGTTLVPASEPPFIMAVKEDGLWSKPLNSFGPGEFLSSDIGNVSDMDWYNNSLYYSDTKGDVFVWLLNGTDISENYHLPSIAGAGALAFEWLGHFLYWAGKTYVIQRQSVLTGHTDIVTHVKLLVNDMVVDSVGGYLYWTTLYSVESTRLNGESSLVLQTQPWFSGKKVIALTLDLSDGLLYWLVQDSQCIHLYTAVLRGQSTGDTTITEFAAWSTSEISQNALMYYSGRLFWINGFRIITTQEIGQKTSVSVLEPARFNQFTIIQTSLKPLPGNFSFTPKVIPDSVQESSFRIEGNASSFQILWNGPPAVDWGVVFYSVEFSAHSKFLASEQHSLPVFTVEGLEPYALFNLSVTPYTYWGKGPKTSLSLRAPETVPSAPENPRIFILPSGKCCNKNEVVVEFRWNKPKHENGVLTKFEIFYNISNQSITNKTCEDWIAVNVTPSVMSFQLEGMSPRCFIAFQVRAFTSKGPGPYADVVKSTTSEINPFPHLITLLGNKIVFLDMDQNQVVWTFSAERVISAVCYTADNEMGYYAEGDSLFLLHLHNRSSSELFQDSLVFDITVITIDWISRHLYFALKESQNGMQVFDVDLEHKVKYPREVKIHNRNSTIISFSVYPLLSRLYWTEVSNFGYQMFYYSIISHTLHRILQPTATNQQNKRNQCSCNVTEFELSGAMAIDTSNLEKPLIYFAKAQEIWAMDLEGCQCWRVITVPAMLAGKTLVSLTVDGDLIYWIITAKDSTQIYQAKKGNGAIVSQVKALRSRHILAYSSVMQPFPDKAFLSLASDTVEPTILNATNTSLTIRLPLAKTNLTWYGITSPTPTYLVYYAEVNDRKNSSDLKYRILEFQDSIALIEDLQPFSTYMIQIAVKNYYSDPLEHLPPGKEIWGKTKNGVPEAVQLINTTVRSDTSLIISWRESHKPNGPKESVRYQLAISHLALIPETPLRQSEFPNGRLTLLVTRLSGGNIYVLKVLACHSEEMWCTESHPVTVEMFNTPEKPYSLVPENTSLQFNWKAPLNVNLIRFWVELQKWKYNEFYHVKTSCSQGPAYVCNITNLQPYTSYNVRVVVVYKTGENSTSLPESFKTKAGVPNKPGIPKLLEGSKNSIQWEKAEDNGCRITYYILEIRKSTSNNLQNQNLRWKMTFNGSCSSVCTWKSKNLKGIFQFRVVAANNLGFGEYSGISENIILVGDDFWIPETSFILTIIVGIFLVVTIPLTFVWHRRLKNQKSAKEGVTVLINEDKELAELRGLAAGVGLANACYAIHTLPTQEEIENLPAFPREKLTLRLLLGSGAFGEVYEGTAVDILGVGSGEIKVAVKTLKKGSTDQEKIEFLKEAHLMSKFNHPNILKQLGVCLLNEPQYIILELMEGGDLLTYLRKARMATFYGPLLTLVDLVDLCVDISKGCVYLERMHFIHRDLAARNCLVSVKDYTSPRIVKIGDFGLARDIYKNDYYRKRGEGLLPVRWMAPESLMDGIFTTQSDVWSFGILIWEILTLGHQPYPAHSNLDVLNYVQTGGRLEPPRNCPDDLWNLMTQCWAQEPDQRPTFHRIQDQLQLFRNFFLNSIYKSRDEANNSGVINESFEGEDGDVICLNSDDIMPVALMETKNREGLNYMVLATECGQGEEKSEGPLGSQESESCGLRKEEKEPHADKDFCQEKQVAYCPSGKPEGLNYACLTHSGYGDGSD
T3 sequence (Q15303 26-1308): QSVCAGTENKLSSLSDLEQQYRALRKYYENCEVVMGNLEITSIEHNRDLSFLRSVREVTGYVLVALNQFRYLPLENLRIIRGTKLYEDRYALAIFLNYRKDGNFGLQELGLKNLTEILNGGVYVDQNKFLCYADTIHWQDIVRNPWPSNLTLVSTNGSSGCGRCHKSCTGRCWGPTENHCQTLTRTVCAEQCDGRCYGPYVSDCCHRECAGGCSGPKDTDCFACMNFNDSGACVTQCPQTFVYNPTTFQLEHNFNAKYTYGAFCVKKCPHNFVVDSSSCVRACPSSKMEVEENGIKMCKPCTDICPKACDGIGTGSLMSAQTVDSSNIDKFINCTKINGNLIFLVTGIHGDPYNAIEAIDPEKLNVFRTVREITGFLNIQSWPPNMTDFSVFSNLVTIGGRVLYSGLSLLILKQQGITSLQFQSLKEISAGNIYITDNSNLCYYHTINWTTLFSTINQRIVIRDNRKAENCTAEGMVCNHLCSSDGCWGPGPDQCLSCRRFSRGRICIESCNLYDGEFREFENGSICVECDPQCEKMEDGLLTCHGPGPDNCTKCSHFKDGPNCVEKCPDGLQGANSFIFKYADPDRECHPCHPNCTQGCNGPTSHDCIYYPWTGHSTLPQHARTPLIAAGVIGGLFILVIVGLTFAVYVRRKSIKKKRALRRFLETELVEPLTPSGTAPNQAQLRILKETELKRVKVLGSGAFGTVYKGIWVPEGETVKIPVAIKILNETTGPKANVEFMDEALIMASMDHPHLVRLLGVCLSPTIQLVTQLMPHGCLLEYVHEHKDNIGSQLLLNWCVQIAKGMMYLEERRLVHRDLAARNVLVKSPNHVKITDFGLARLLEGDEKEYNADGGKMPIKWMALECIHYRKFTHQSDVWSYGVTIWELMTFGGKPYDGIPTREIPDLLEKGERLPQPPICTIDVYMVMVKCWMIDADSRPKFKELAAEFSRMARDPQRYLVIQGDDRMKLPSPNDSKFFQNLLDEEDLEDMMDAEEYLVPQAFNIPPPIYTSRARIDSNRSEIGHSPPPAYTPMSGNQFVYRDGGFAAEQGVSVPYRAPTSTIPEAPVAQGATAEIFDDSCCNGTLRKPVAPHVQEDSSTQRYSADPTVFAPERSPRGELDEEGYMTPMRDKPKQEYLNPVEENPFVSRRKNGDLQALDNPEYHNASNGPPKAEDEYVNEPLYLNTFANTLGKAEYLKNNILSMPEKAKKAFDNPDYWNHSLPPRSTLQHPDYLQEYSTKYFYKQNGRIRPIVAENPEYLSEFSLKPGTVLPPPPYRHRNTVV

C=CC(=O)Nc1cc(Nc2nccc(-c3c4n(c5ccccc35)CCCC4)n2)c(OC)cc1N(C)CCNC [Imp3]
inhibition at 1 µM (ALK(h)): 92% | IC50 (ALK(h)): 53 nM | inhibition at 1 µM (Blk(h)): 85% | IC50 (Blk(h)): 229 nM | inhibition at 1 µM (ErbB4(h)): 92% | IC50 (ErbB4(h)): 84 nM | inhibition at 1 µM (Flt3(h)): 97% | IC50 (Flt3(h)): 45 nM | inhibition at 1 µM (HIPK4(h)): 82% | IC50 (HIPK4(h)): 276 nM | inhibition at 1 µM (LTK(h)): 93% | IC50 (LTK(h)): 61 nM | inhibition at 1 µM (PTK5(h)): 64% | IC50 (PTK5(h)): 736 nM | inhibition at 1 µM (Pyk2(h)): 83% | IC50 (Pyk2(h)): 227 nM | inhibition at 1 µM (Ros(h)): 98% | IC50 (Ros(h)): 47 nM | inhibition at 1 µM (Tec(h) activated): 77% | IC50 (Tec(h) activated): 272 nM

C=CC(=O)Nc1cc(Nc2nccc(-c3c4n(c5ccccc35)CCCC4)n2)c(OC)cc1N(C)CCN(C)C [SH-1028]
inhibition at 1 µM (ALK(h)): 85% | IC50 (ALK(h)): 79 nM | inhibition at 1 µM (Blk(h)): 83% | IC50 (Blk(h)): 143 nM | inhibition at 1 µM (ErbB4(h)): 90% | IC50 (ErbB4(h)): 46 nM | inhibition at 1 µM (Flt3(h)): 88% | IC50 (Flt3(h)): 71 nM | inhibition at 1 µM (HIPK4(h)): 67% | IC50 (HIPK4(h)): 232 nM | inhibition at 1 µM (LTK(h)): 83% | IC50 (LTK(h)): 81 nM | inhibition at 1 µM (PTK5(h)): 39% | IC50 (PTK5(h)): 644 nM | inhibition at 1 µM (Pyk2(h)): 73% | IC50 (Pyk2(h)): 228 nM | inhibition at 1 µM (Ros(h)): 96% | IC50 (Ros(h)): 50 nM | inhibition at 1 µM (Tec(h) activated): 80% | IC50 (Tec(h) activated): 150 nM

Source: publication PMC8111447 (Frontiers in Pharmacology, 2021)
